The source made the active and inactive calls. The rule behind the calls is not given here.
biological target: Chaperone protein DnaK (Escherichia coli (strain K12)) (UniProt P0A6Y8); assay: binders of DnaK substrate-binding domain, biophysical, NMR, chaperone (AID 1033); conditions: Purified DnaK SBD, NMR ligand binding
Sequence (P0A6Y8 whole entry, looked up, the tested form may be a part): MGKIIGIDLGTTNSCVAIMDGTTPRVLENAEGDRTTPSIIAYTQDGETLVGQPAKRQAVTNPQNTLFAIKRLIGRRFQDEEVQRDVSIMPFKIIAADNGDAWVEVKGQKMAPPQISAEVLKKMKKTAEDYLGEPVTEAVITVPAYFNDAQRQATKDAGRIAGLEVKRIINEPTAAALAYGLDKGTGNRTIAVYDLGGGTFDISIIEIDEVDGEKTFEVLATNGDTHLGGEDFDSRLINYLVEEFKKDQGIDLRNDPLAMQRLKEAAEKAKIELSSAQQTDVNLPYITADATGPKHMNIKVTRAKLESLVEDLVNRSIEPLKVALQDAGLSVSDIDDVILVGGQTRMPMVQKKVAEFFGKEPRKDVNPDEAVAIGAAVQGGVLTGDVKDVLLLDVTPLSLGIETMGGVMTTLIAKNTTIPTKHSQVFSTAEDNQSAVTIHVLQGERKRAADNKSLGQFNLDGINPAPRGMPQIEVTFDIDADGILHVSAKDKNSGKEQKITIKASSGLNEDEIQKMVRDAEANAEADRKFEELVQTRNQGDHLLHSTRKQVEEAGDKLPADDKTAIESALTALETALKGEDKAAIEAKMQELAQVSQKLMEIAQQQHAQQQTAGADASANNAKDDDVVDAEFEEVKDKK

SMILES | Kd
CP(C)(=O)CCC(=O)O | > 4 mM (inactive)
CC(=O)Nc1cc(S(=O)(=O)N(C)C)ccc1Cl | > 4 mM (inactive)
Nc1[nH]c(=S)ncc1S(=O)(=O)c1ccccc1 | > 4 mM (inactive)
CN=C(c1ccc([N+](=O)[O-])cc1)N(C)C | > 4 mM (inactive)
CC(C)=CCc1c(O)cc(C)oc1=O | > 4 mM (inactive)
COCCn1cnc2cc(C)c(C)cc21 | > 4 mM (inactive)
CCNC(=S)Nc1c(C)n(C)n(-c2ccccc2)c1=O | > 4 mM (inactive)
CC(=O)Oc1ccc(-c2nc(-c3cccnc3)no2)cc1 | > 4 mM (inactive)
CC(C)=CCc1c(O)cc2occ(-c3ccc4c(c3)OCO4)c(=O)c2c1O | > 4 mM (inactive)
COc1cccc(OC)c1C(=O)N1CCOCC1 | > 4 mM (inactive)
CC(=O)CC(=O)N1C(O)CC[N+]1(C)C (configuration not stated) | > 4 mM (inactive)
NC1=NC(=O)/C(=C/c2ccc(O)c(Cl)c2)S1 | > 4 mM (inactive)
CCN1CCN(c2ncnc3c2nnn3C)CC1 | > 4 mM (inactive)
O=c1n(-c2ccccc2)c(=O)n2n1CCCC2 | > 4 mM (inactive)
Cc1cc(O)c(C)c(O)c1C(=O)O | > 4 mM (inactive)
CSc1ccc(C2NC(=O)CCC2[N+](=O)[O-])cc1 (configuration not stated) | > 4 mM (inactive)
COc1cc(C)c(S(=O)(=O)N2CCN(C)CC2)cc1C | > 4 mM (inactive)
O=C1COc2cc(O)ccc21 | > 4 mM (inactive)
O=C(O)C1CCN(S(=O)(=O)c2cccs2)CC1 | > 4 mM (inactive)
Nc1ccc(N2CCOCC2)cc1 | > 4 mM (inactive)
O=C1NC(=S)N/C1=C\c1ccccc1 | > 4 mM (inactive)
Cc1csc(NC(=O)c2ccoc2C)n1 | > 4 mM (inactive)
CC(=O)Nc1ccc(Cl)c(C(N)=O)c1 | > 4 mM (inactive)
COC(=O)c1oc2ccc(Cl)cc2c1NC(C)=O | > 4 mM (inactive)
CC1=CC2C(C(C)C)CCC(C)(O)C2CC1 (configuration not stated) | > 4 mM (inactive)
COC(=O)[C@@H]1OC(=O)[C@H]2O[C@@]23[C@@]1(C)CCC1[C@@]2(C)CCC(=O)C(C)(C)C2C[C@@H](OC(C)=O)[C@]13C (some centres not stated) | > 4 mM (inactive)

SMILES | Kd
Cc1nc(SCC(=O)c2c[nH]c3ccccc23)n[nH]1 | > 4 mM (inactive)
O=C(c1ccccc1-c1ccccc1)N1CCOCC1 | > 4 mM (inactive)
COC(=O)C1Cc2ccccc2N1 (configuration not stated) | > 4 mM (inactive)
O=C(Nc1ccccc1)c1cnc2n(c1=O)CCS2 | > 4 mM (inactive)
O=C1Cn2c(nc3ccccc32)N1c1ccccc1F | > 4 mM (inactive)
O=S(=O)(Nc1cccnc1Cl)c1ccccc1 | > 4 mM (inactive)
Cc1ccc(N2C(=O)CC(=O)NC2=O)cc1 | > 4 mM (inactive)
Cc1ccc(C(=O)n2cnnc2N)cc1C | > 4 mM (inactive)
Cc1ncc(CC(=O)O)s1 | > 4 mM (inactive)
O=C(c1ccncc1)c1ccc(Br)cc1 | > 4 mM (inactive)
O=C(O)c1ccc(-c2ccccn2)s1 | > 4 mM (inactive)
Cc1ccc(/C=N/NC(N)=O)o1 | > 4 mM (inactive)
CC(=O)O[C@H]1C[C@@H](OC(C)=O)C(C)(C)C2CC(=O)[C@]3(C)C(CC[C@@]4(C)[C@H](C(=O)O)OC(=O)C5OC543)[C@]21C (some centres not stated) | > 4 mM (inactive)
Cc1ccc(C(=O)N2CCC(C(N)=O)CC2)c(Cl)c1 | > 4 mM (inactive)
COC(=O)C[C@@H]1C2(C)C(=O)[C@@H](CC3C2CC[C@]2(C)C3CC(=O)O[C@H]2c2ccoc2)[C@H](OC(C)=O)C1(C)C (some centres not stated) | > 4 mM (inactive)
CCOCC(=O)NCc1n[nH]c(=O)c2ccccc12 | > 4 mM (inactive)
O=C(C1CCC(C(=O)N2CCCC2)CC1)N1CCCC1 (configuration not stated) | > 4 mM (inactive)
N=Nc1c(O)[nH]c2ccccc12 | > 4 mM (inactive)
OCc1ccc(-c2cccs2)s1 | > 4 mM (inactive)
CNC(=O)c1cccc(NC(=S)NC)c1 | > 4 mM (inactive)
CC1(O)CC2C=CC1C2 (configuration not stated) | > 4 mM (inactive)
C[C@H]1O[C@@H](O[C@H]2[C@@H](O)C[C@H](O[C@H]3[C@@H](O)C[C@H](O[C@H]4CC[C@]5(C)C6CC[C@]7(C)[C@@H](C8=CC(=O)OC8)CC[C@]7(O)C6CC[C@@H]5C4)O[C@@H]3C)O[C@@H]2C)C[C@H](O)[C@@H]1O (some centres not stated) | > 4 mM (inactive)
CC1(C)CC2C1CCC1(C)OC2(C)CCC1O (configuration not stated) | > 4 mM (inactive)
O=C(NCc1cccc(Cl)c1)c1cnccn1 | > 4 mM (inactive)
COc1cc([C@@H]2c3cc4c(cc3[C@H](O)[C@H]3COC(=O)[C@@H]23)OCO4)cc(OC)c1OC | > 4 mM (inactive)
COc1c(-c2ccccc2)oc2c(OC)cccc2c1=O | > 4 mM (inactive)

SMILES | Kd
CC(=O)Nc1ccc(C(=O)n2nc(C)cc2C)cc1 | > 4 mM (inactive)
S=C(NC1=NCCS1)Nc1ccccc1 | > 4 mM (inactive)
CC1CCN(C(=O)c2cc3ccccc3o2)CC1 | > 4 mM (inactive)
Cn1c(SCC(N)=O)nc2c1c(=O)[nH]c(=O)n2C | > 4 mM (inactive)
O=C(OC[C@H]1O[C@H](OC(=O)c2cc(O)c(O)c(OC(=O)c3cc(O)c(O)c(O)c3)c2)[C@H](OC(=O)c2cc(O)c(O)c(OC(=O)c3cc(O)c(O)c(O)c3)c2)[C@@H](OC(=O)c2cc(O)c(O)c(OC(=O)c3cc(O)c(O)c(O)c3)c2)[C@@H]1OC(=O)c1cc(O)c(O)c(OC(=O)c2cc(O)c(O)c(O)c2)c1)c1cc(O)c(O)c(OC(=O)c2cc(O)c(O)c(O)c2)c1 | > 4 mM (inactive)
COCC(=O)Nc1cc2c3c(c1)CCN3C(=O)CC2 | > 4 mM (inactive)
CC(=O)NCC1OCCc2ccccc21 (configuration not stated) | > 4 mM (inactive)
Nc1ncccc1OCc1ccccc1 | > 4 mM (inactive)
NC(=O)CNC(=O)c1ccccc1 | > 4 mM (inactive)
c1ccc2c(c1)CN1CCCC1=N2 | > 4 mM (inactive)
NC(=O)c1ccccc1NC(=O)c1cccnc1 | > 4 mM (inactive)
CCN=Cc1c(O)n(-c2ccccc2C)c(=O)[nH]c1=O | > 4 mM (inactive)
NCC(=O)c1ccccc1 | > 4 mM (inactive)
c1ccc2nc3c(nc2c1)CCc1nonc1-3 | > 4 mM (inactive)
Nc1ccc(-c2csnn2)cc1 | > 4 mM (inactive)
CN1CCN(C(=O)c2ccccc2N)CC1 | > 4 mM (inactive)
Oc1cccc(N2CCOCC2)c1 | > 4 mM (inactive)
COc1ccc(Cc2nccc3cc(OC)c(OC)cc23)cc1OC | > 4 mM (inactive)
Cn1c([O-])c([N+](C)(C)C)c(=O)n(C)c1=O | > 4 mM (inactive)
COc1cc(/C=C/C(=O)O)ccc1O | > 4 mM (inactive)
c1ccc(-n2nnnc2-n2cnc3ccccc32)cc1 | > 4 mM (inactive)
COc1ccc(C(=O)/C=C/c2ccccc2)cc1 | > 4 mM (inactive)
Nc1n[nH]c(=S)n1-c1ccccc1 | > 4 mM (inactive)
Cn1nc(C(=O)N2CCOCC2)c2ccccc2c1=O | > 4 mM (inactive)
C[C@H]1O[C@@H](O[C@H]2[C@@H](O)C[C@H](O[C@H]3[C@@H](O)C[C@H](O[C@H]4CC[C@]5(C)C6C[C@@H](O)[C@]7(C)[C@@H](C8=CC(=O)OC8)CC[C@]7(O)C6CC[C@@H]5C4)O[C@@H]3C)O[C@@H]2C)C[C@H](O)[C@@H]1O (some centres not stated) | > 4 mM (inactive)

Source: PubChem BioAssay AID1033 (Sanford-Burnham Center for Chemical Genomics, 2008)
